Results taken from PMC9548544, “Population pharmacokinetic model of vancomycin in postoperative neurosurgical patients” (Frontiers in Pharmacology, 2022).

Key:
[1] = Therapeutic drug monitoring of vancomycin serum concentration (chemiluminescence immunoassay); type: in vivo, human; conditions: mostly steady state (>4 doses) trough, 895 observations from 560 patients, dose 951.19 ± 152.23 mg/time, SD
Description: Inclusion criteria were: 1) age ≥18 years; 2) therapeutic drug monitoring was performed during treatment and at least 1 vancomycin concentration was obtained. Exclusion criteria were: 1) pregnant women ([Lin et al., 2021]); 2) cystic fibrosis ([Jing et al., 2020]).
(§1) The dosage regimen of vancomycin is adjusted by the clinicians according to the patient’s conditions and renal function, including 1 g Qd, 1 g Q12h, 1 g Q8h, 0.5 g Qd, 0.5 g Q12h, 0.5 g Q8h and 0.5 g Q6h. The infusion time cannot be accurately obtained, but 1 h infusion was most used in clinical applications, so the default infusion time in this study was 1 h. Vancomycin serum concentrations were obtained from patient’s therapeutic drug monitoring data, most of which were steady state (>4 doses) trough concentrations. The blood samples were anticoagulated by Ethylene Diamine Tetraacetic Acid, centrifuged at 5,000 rpm for 3 min and analyzed by chemiluminescence immunoassay (ADVIA Centaur® XP, Siemens). Sample calibration and quality control were carried out in accordance with the manufacturer’s instructions and the calibration range was 0.67–90 mg/L.

[2] = fixed, not estimated, ref Jing et al., 2020, cited from earlier work
[3] = ref Rybak, 2006, cited from earlier work
[4] = ref Lin Wu et al., 2015; cited from earlier work
[5] = Population pharmacokinetic (NLME, one-compartment) model of vancomycin in postoperative neurosurgical patients
Description: The data of patients who received vancomycin therapy from October 2018 to March 2022 in Beijing Tiantan Hospital, Capital Medical University were retrospectively collected. Inclusion criteria were: 1) age ≥18 years; 2) therapeutic drug monitoring was performed during treatment and at least 1 vancomycin concentration was obtained. Exclusion criteria were: 1) pregnant women ([Lin et al., 2021]); 2) cystic fibrosis ([Jing et al., 2020]).
as §1
In this study, nonlinear mixed effects modeling (NLME) method was used to construct the PPK model. Pharmacokinetic parameters and the variability were assessed using the first-order conditional estimation with extended least square method (FOCE-ELS) by using the Phoenix® NLME software (version 8.3; Certara, St. Louis, Missouri). Bootstrap and visual predictive check (VPC) were used to test the stability and predictive ability of the final model.
The one-compartment model with first-order elimination was used to describe the pharmacokinetic characteristics of vancomycin. The sparse trough concentration data led to the inaccurate estimation of the V. Therefore, the population typical value of V was fixed at 60.2 L according to a PPK model in Chinese neurosurgery adult patients ([Jing et al., 2020]).
Inter-individual variability (η) of PPK model was described by exponential random effect model in Eq. 1. Residual variability (ε) was described by combined (multiplicative and additive) error model in Eq. 2. The η was assumed to follow a normal distribution with a mean of zero and a variance of ω ^2. The ε was assumed to follow a normal distribution with a mean of zero and a variance of σ ^2. θi=θTV×e^ηi, (1) Cobs=Cpred+ε×1+(Cpred×σ1/σ2)^2 (2) where θ TV is the population typical value of pharmacokinetic parameters, θ i is the individual (i ^th) pharmacokinetic parameters. Cobs and Cpred respectively represent the measured concentration and predicted concentration of a patient; σ 1 represents the multiplicative σ, and σ 2 represents the standard deviation of ε.
Continuous covariates included age, height, BW, body mass index, serum creatinine (Scr), creatinine clearance (CLcr) and estimated glomerular filtration rate (eGFR). Categorical covariates included sex, RRT and concomitant drugs (mannitol, meropenem and diuretics). CLcr is calculated by the Cockcroft-Gault equation ([Cockcroft and Gault, 1976]). eGFR is calculated by the Chronic Kidney Disease Epidemiology Collaboration (CKD-EPI) equation ([Kong et al., 2013]). All continuous covariates are centered at their median values. The difference of the objective function value (OFV) was used to compare the models.
After the establishment of the base model, the effects of covariates on pharmacokinetic parameters were tested by forward addition and backward elimination under stepwise manner. In the forward addition, if the decrease of OFV was greater than 6.64 (p < 0.01, df = 1), the covariate was considered to have a significant influence on the model parameters.

CN[C@H](CC(C)C)C(=O)N[C@H]1C(=O)N[C@@H](CC(N)=O)C(=O)N[C@H]2C(=O)N[C@H]3C(=O)N[C@H](C(=O)N[C@H](C(=O)O)c4cc(O)cc(O)c4-c4cc3ccc4O)[C@H](O)c3ccc(c(Cl)c3)Oc3cc2cc(c3O[C@@H]2O[C@H](CO)[C@@H](O)[C@H](O)[C@H]2O[C@H]2C[C@](C)(N)[C@H](O)[C@H](C)O2)Oc2ccc(cc2Cl)[C@H]1O [vancomycin, Vancomycin]
Concentration (mg/L), mean ± standard deviation [1]: 14.20 ± 7.36 mg/L | V (L), base model ([2]; base model): 60.2 L | V (L), Bootstrap ([2]; bootstrap): 60.2 L | V (L), apparent distribution volume, final model ([2]; final model): 60.2 L | absorption by oral administration ([3]; oral): almost not absorbed | α half-life ([3]; patients with normal renal function, printed as 'approximately'): 0.5 to 1 h | terminal elimination half-life ([3]; patients with normal renal function): 3 to 9 h | protein binding rate ([3]; printed as 'about'): 10%–50% | share of vancomycin excreted in prototype through the kidney ([3]; within 24 h after administration): more than 80% | V in another eligible study [4]: 54 ± 17 L | Mannitol on CL (L/h), final model, Estimate (%RSE) ([5]; A in e^A of the CL equation when co-medicated with mannitol, final model): 0.13 (17.85) L/h | Mannitol on CL (L/h), Bootstrap Median (%RSE) ([5]; A in e^A when co-medicated with mannitol, bootstrap, 5,000 data sets): 0.13 (17.72) L/h | CL (L/h), base model, Estimate (%RSE) ([5]; base model without covariates): 8.08 (1.93) L/h | CL (L/h), Bootstrap Median (%RSE) ([5]; bootstrap of final model, 5,000 data sets): 7.97 (2.24) L/h | BW on CL (L/h), final model, Estimate (%RSE) ([5]; exponent of (BW/70) in the CL equation, final model): 0.30 (20.19) L/h | BW on CL (L/h), Bootstrap Median (%RSE) ([5]; exponent of (BW/70), bootstrap, 5,000 data sets): 0.30 (19.91) L/h | eGFR on CL (L/h), Bootstrap Median (%RSE) ([5]; exponent of (eGFR/115.2), bootstrap, 5,000 data sets): 0.80 (4.39) L/h | CL (L/h), population typical value, final model, Estimate (%RSE) ([5]; final model, one-compartment, FOCE-ELS, 895 concentrations from 560 patients, iv infusion, covariates centred at eGFR 115.2, BW 70, no mannitol): 7.98 (1.90) L/h | increase in vancomycin CL when co-medicated with mannitol ([5]; final model, with versus without mannitol): 14% | typical value of vancomycin CL per body weight ([5]; this study, postoperative neurosurgical patients): 1.83 mL/min/kg
